Molecules are shown by their SMILES.

The source of these data is paper PMC8152814, “The modulatory role of sulfated and non-sulfated small molecule heparan sulfate-glycomimetics in endothelial dysfunction: absolute structural clarification, molecular docking and simulated dynamics, SAR analyses and ADMET studies” (RSC Medicinal Chemistry, 2021).

Common to all, as to assay type: cell-based, human
Common to all, as to settings: averaged % of increase (+) or decrease (−) compared to control (FFA induced oxidatively stressed endothelial cells), n = 3

The test system of one assay is nitric oxide (NO). The assay can be described thus: NO release assay (DAF-2) in FFA-stressed cells. From the text:
(§1) The assays focused on the production of nitric oxide (NO) and the upregulation of nitric oxide synthase (eNOS), the production of reactive oxygen species (ROS) and the activity of nicotinamide adenine dinucleotide phosphate (NADPH) oxidase (Table 2). From the hypothesised model of heparan sulfate-glycomimetic activity,[17] the glycomimetics are proposed to attenuate the binding of HGF to the cMET receptor. This disruption to MET-receptor activation is proposed to modulate intracellular phosphorylation leading to an upregulation of eNOS and increased output of extracellular NO. […] Overall, the cross examination of NO output and reduction of ROS was used to determine the therapeutic action of the triaged glycomimetics α-4, R-10, S-10 and β-5, as well as 3 non-sulfated intermediates α-2, α-3 and β-3, on free fatty acid (FFA) induced, oxidatively stressed endothelial cell cultures (Table 2).
(§2) Biological assay and AMDET experimental details […]
(§3) Preparation of FFA-albumin complexes and cell treatments
(§4) To generate the in vitro model of oxidative stress, sodium palmitate was bound to bovine serum albumin (BSA) as outlined by Chavez and Summers,S2 with modifications. Sodium palmitate (FFA) was dissolved in EtOH at 60 °C and diluted 1:100 in M199 media supplemented with 2% fatty acid-free bovine serum albumin (BSA) and incubated for 1 h at 37 °C. HepG2 cells were treated with 1 μmol/L of the synthesized HS-glycomimetics in the presence of palmitate (100 μmol/L) for 3 h or pre-treated with glycomimetics for 12 h followed by 3 h palmitate (100 μmol/L). Control cells were incubated in serum free M199 containing 2% (wt/vol) fatty acid-free BSA.
NO release assay and Quantification of ROS production
NO release was determined using diaminofluorescein-2 (DAF-2).S3 The cells were washed with PBS and incubated with L-arginine (100 μmol/L in PBS) for 5 min at 37 °C before incubation with DAF-2 (0.1 μmol/L) for 2 min, followed by the calcium ionophore calimycin (A23187, 1 μmol L) for 30 min. L-NAME (100 μmol/L), a nitric oxide inhibitor (NOS), was also added 20 min before the addition of L-arginine in some experiments to determine the involvement of NOS. DAF-2 fluorescence (arbitrary units, AU) was quantified using a microplate reader (BioTek) with excitation and emission wavelengths of 485 nm and 540 nm, respectively. The auto-fluorescence was subtracted from each value. […]
(§5) H2DCFDA, Sigma) for 30 min at 37 °C, and the level of fluorescence was determined (excitation 490 nm; emission 540 nm) using a microplate reader (BioTek).
(§6) The level of NADPH-enhanced superoxide anions (O2•−) in HepG2 homogenates was determined by lucigenin-enhanced chemiluminescence.S4 Following the various treatment conditions, cells were homogenized in a buffer (20 mmol/L H2KPO4 and 1 mmol/L EDTA supplemented with aprotinin, leuprotinin, pepstatin and PMSF). The total protein quantified using the Bicinchoninic acid (BCA) assay (Pierce Biotechnology). To 50 μg of total protein, NADPH (100 μmol/L) was added in a total volume of 500 μL, with lucigenin (5 μmol/L) and was injected automatically. Activity was determined by measuring luminescence over 200 s in a scintillation counter (Lumat LB 9507, Berthold, Germany). Basal values of NADPH oxidase activity were subtracted from the experimental values and expressed as RLU/min/μg protein […]
(§7) In situ quantification of ROS species
(§8) Superoxide dismutase (SOD) and catalase (CAT) activity assays, and in situ detection of vascular ROS content. The activity of the enzymes, SOD and CAT, was determined in cell homogenates using assay kits according to the manufacturer's instructions (Cayman; Cat No 706002 and 707002 respectively). A unit of SOD was defined as the amount of enzyme […]
(§9) Similarly, a unit of CAT was […]
(§10) defined as the amount required to form 1.0 nmol of formaldehyde per min at 25 °C.S5

The test system of another assay is eNOS. The assay can be described thus: eNOS phosphorylation (Western blot) in FFA-stressed cells.
Excerpt: as §1, §2, §3
as §4, with “BSA. […]” for “BSA.”
HepG2 wells were lysed in RIPA buffer containing proteinase inhibitors and the total protein was quantified using BCA protein assay kit (Pierce Biotechnology). Proteins (30 μg/well) were denatured and separated by sodium dodecyl sulfate (SDS)-polyacrylamide gel electrophoresis and transferred to polyvinylidene difluoride (PVDF) membranes. Blots were blocked for 1 h in 5% semi-skimmed milk/Tris-Buffered Saline Tween-20 (TBS-T), probed with primary rabbit anti-phospho-protein kinase B (Akt), rabbit anti-Akt (Santa Cruz Biotechnology), rabbit polyclonal anti-phospho-eNOS (Cell Signaling) overnight at 4 °C followed by washing and incubation with the corresponding horse radish peroxidase-labelled secondary antibody for 1 h at room temperature. After washing with TBS-T, membranes were incubated with ECL reagent and visualized (Amersham Pharmacia Biotech). Densitometry analysis using ImageJ© (version 1.32j, NIH) was used to quantify the protein signal.S7 […]
(typically 0.01 M phosphate buffered saline pH 7.4) so that the final DMSO concentration is 1 % and the final test compound concentrations are 1, 3, 10, 30 and 100 µM. The experiment is performed at 37 °C and each concentration is incubated in 7 replicate wells. The plates are incubated for 2 h at 37 °C before the absorbance is measured at 620nm. Nicardipine (pH dependent) and pyrene (pH independent) are included as control compounds. The solubility is estimated from the concentration of test compound that produces an increase in absorbance above vehicle control (1% DMSO in buffer).
(In general: A western blot detects proteins with antibodies after separation by electrophoresis.)

For assay [1], the system named is reactive oxygen species (ROS). As to the kind of experiment: ROS production in FFA-stressed cells.
Excerpt: as §1, §2, §3, §4
NO release assay and Quantification of ROS production […]
The auto-fluorescence was subtracted from each value. Cells were incubated with 10 μmol/L of the fluorescent probe: 2′-7′-dichlorodihydrofluorescein diacetate (CM-H2DCFDA, Sigma) for 30 min at 37 °C, and the level of fluorescence was determined (excitation 490 nm; emission 540 nm) using a microplate reader (BioTek).
as §6, §7, §8, §9
defined as the amount required to form 1.0 nmol of formaldehyde per min at 25 °C.S5 […]
HepG2 cells were incubated in serum-free DMEM containing 2% fatty acid-free BSA (control) or palmitate conjugated BSA (100 μmol/L) in the presence of HS-glycomimetics (1 or 10 μmol/L) for 24 h. The cells were incubated for 30 min in Hepes-buffered solution containing 10 μmol/L dihydroethidium (DHE), which intercalates with DNA in the presence of ROS and is detectable by fluorescence. Cells were counterstained with the nuclear stain DAPI at 0.3 μmol/L. In the following 24 h, the cell cultures were examined using a fluorescence microscope (Leica DMIRB). Sections were photographed and fluorescence was quantified using ImageJ. […]

Another assay has as its system NADPH oxidase. The assay can be described thus: NADPH oxidase activity (lucigenin chemiluminescence) in cell homogenates. Further details: concentration or dose not given beside the values.
Excerpt: as §1, §2, §3
as §4, with “BSA. […]” for “BSA.”
as §5, §6, §7, §8, §9, §10

In the case of `COC(=O)c1cc(OC[C@H](O)CO)ccc1OC[C@@H](O)CO` (mixture of isomers) [α-2, methyl 5-((R)-2,3-dihydroxypropoxy)-2-((S)-2,3-dihydroxypropoxy)benzoate], the NO production entry in the assay with nitric oxide (NO) is reported as “+46%”. For the same compound, the eNOS phosphorylation entry in the assay on eNOS is given as “+286%”. Besides, in assay [1], the ROS production is −36%. Besides, the NADPH oxidase activity in the assay with NADPH oxidase was −26%.
Take `O=C(O)c1cc(OCC(O)CO)ccc1OCC(O)CO` (mixture of isomers) [α-3, sodium 5-((R)-2,3-dihydroxypropoxy)-2-((±)-2,3-dihydroxypropoxy)benzoate]: the NO production entry in the assay on nitric oxide (NO) is “+41%”. Also, the eNOS phosphorylation result in the assay on eNOS is given as “+312%”. Further, the ROS production in assay [1] is −23%. Also, in the assay on NADPH oxidase, the NADPH oxidase activity is listed as −21%.
Take `O=C(O)c1cc(OCC(O)CO)ccc1OCC(O)CO` (mixture of isomers) [β-3, sodium 5-((S)-2,3-dihydroxypropoxy)-2-((±)-2,3-dihydroxypropoxy)benzoate]: the NO production result in the assay with nitric oxide (NO) is “+52%”. Also, the eNOS phosphorylation entry in the assay on eNOS is “+294%”. Moreover, the ROS production in assay [1] is on record as −19%. Further, in the assay on NADPH oxidase, the NADPH oxidase activity was −27%.
